Consider 1 compound from patent US20100056560A1, “USE FOR TREATING OBESITY AND DIABETES” (priority 2006, published 2010).

The test system of this experiment is adiponectin. Put plainly: Expression of adiponectin in 3T3-L1 adipocytes (Western blot). The class given is cell-based, Mouse. Particulars: 3T3-L1, 100 μM isoflavone, 1 mM L-carnitine, 1 mM L-arginine, 100 ppm caffeine, 24 hours.

Protocol: Mouse undifferentiated 3T3-L1 adipocytes) (purchased from ATCC) were cultured in 10% calf serum-containing DMEM (Dulbecco's modified Eagle's medium, Gibco 1210-0038) in a 10% CO2 incubator to a confluency of 70% while replacing the medium with a fresh medium at 2-day intervals. For differentiation into adipocytes, the cells were cultured in a medium (containing 10% fetal bovine serum, 0.5 mM 3-isobutyl-1-methyxanthine (Sigma), 1 μM dexamethasone (Sigma) and 167 nM insulin (Novo-Nordisk)) for 48 hours, and then the medium was replaced with a DMEM medium (containing 10% fetal bovine serum and 167 nM insulin), in which the cells were further cultured for 48 hours. Finally, the cells were further cultured in a medium (containing only 10% fetal bovine serum) for 48 hours, thus obtaining differentiated adipocytes.
The adipocytes, differentiated in the step 1, were cultured in a medium, containing 51 fatty acid-free calf serum, for 16 hours. On the next day, the cultured cells were washed three times with PBS, and then treated with each of 100 μM isoflavone, 1 mM L-carnitine, 1 mM L-arginine, 100 ppm caffeine and a mixture of 100 μM isoflavone+1 mM L-carnitine+1 mM L-arginine+100 ppm caffeine. After 24 hours of cell incubation, a protein was isolated from each of the media and subjected to Western blot analysis in order to examine a change in the expression of adiponectin.

Turning to `Cn1c(=O)c2c(ncn2C)n(C)c1=O` [caffeine], the expression of adiponectin entry is given as “decrease in the expression of adiponectin”.
